The structures appear in SMILES notation.

The record followed here is US11051515B2, “3-acyl-benzamides and their use as herbicides” (Bayer Aktiengesellschaft, priority 2017, dated 2021).

Assay [1] has as its system ALOMY. Briefly: Pre-emergence action against ALOMY. The class given is in vivo, Alopecurus myosuroides. To be noted: dosage 320 g/ha; pre-emergence; scored visually after 3 weeks vs untreated controls; 100% = plants have died, 0% = like control plants. An excerpt: (§1) Seeds of monocotyledonous and dicotyledonous weed plants and crop plants are laid out in sandy loam soil in wood-fiber pots and covered with soil. The compounds of the invention, formulated in the form of wettable powders (WP) or as emulsion concentrates (EC), are then applied to the surface of the covering soil in the form of an aqueous suspension or emulsion at a water application rate equating to […], with addition of 0.2% wetting agent. After the treatment, the pots are placed in a greenhouse and kept under good growth conditions for the trial plants. The damage to the test plants is scored visually after a test period of 3 weeks by comparison with untreated controls (herbicidal activity in percent (%): 100% activity=the plants have died, 0% activity=like control plants).

Assay [2] has as its system ECHCG. Briefly: Pre-emergence action against ECHCG. The class given is in vivo, Echinochloa crus-galli. To be noted: pre-emergence, dosage 320 g/ha, scored visually after 3 weeks vs untreated controls.
Description: as §1

Assay [3] concerns AMARE. Briefly: Pre-emergence action against AMARE. It counts as in vivo, Amaranthus retroflexus. The settings on record: pre-emergence, dosage 320 g/ha, scored visually after 3 weeks vs untreated controls.
Description: as §1

The subject of assay [4] is MATIN. Briefly: Pre-emergence action against MATIN. It counts as in vivo, Matricaria inodora. The settings on record: Dosage 320 g/ha, pre-emergence.
Description: as §1

The test system of assay [5] is STEME. The experiment in a line: Pre-emergence action against STEME. It counts as in vivo, Stellaria media. The settings on record: Dosage 320 g/ha, pre-emergence.
Description: as §1

In assay [6] the test system is VERPE. The experiment in a line: Pre-emergence action against VERPE. The class given is in vivo, Veronica persica. The settings on record: Dosage 320 g/ha, pre-emergence.
Description: as §1

The subject of assay [7] is CYPES. Briefly: Post-emergence action against CYPES. It counts as in vivo, Cyperus esculentus. To be noted: post-emergence, dosage 80 g/ha, visual assessment about 3 weeks after treatment vs untreated controls. The protocol:
(§2) Seeds of monocotyledonous and dicotyledonous weed and crop plants are laid out in sandy loam soil in wood-fiber pots, covered with soil and cultivated in a greenhouse under good growth conditions. 2 to 3 weeks after sowing, the test plants are treated at the one-leaf stage. The compounds of the invention, formulated in the form of wettable powders (WP) or as emulsion concentrates (EC), are then sprayed onto the green parts of the plants in the form of an aqueous suspension or emulsion at a water application rate equating to […], with addition of 0.2% wetting agent. After the test plants have been left to stand in the greenhouse under optimal growth conditions for about 3 weeks, the action of the preparations is assessed visually in comparison to untreated controls (herbicidal action in percent (%): 100% activity=the plants have died, 0% activity=like control plants). […] At the same time, inventive compounds leave Gramineae crops such as barley, wheat, rye, millet/Sorghum, corn or rice virtually undamaged when applied post-emergence, even at high active ingredient dosages. In addition, some substances are also harmless to dicotyledonous crops such as soya, cotton, oilseed rape, sugar beet or potatoes. Some of the compounds according to the invention have high selectivity and are therefore suitable for controlling unwanted vegetation in agricultural crops by the post-emergence method. The data of Tables B18 to B34 below illustrate, in an exemplary manner, the […] herbicidal action of the compounds according to the invention, the herbicidal activity being stated in percent.

The test system of assay [8] is ECHCG. The experiment in a line: Post-emergence action against ECHCG. It counts as in vivo, Echinochloa crus-galli. The settings on record: post-emergence, dosage 80 g/ha, visual assessment about 3 weeks after treatment vs untreated controls. The protocol:
as §2

Assay [9] deals with ABUTH. The experiment in a line: Post-emergence action against ABUTH. The class given is in vivo, Abutilon theophrasti. The settings on record: post-emergence, dosage 80 g/ha, visual assessment about 3 weeks after treatment vs untreated controls. Here is the method: as §2
The subject of assay [10] is AMARE. Briefly: Post-emergence action against AMARE. It counts as in vivo, Amaranthus retroflexus. To be noted: post-emergence, dosage 80 g/ha, visual assessment about 3 weeks after treatment vs untreated controls. The protocol: as §2
In assay [11] the test system is MATIN. The experiment in a line: Post-emergence action against MATIN. It counts as in vivo, Matricaria inodora. The settings on record: post-emergence, dosage 80 g/ha, visual assessment about 3 weeks after treatment vs untreated controls. The protocol:
as §2

Assay [12] concerns PHBPU. The experiment in a line: Post-emergence action against PHBPU. The class given is in vivo, Pharbitis purpurea. The settings on record: post-emergence, dosage 80 g/ha. Here is the method:
as §2

For assay [13], the system named is STEME. Briefly: Post-emergence action against STEME. The class given is in vivo, Stellaria media. The settings on record: post-emergence, dosage 80 g/ha. The protocol:
as §2

For assay [14], the system named is VIOTR. Briefly: Post-emergence action against VIOTR. The class given is in vivo, Viola tricolor. To be noted: post-emergence, dosage 80 g/ha. The protocol:
as §2

The subject of assay [15] is CYPES. The experiment in a line: Pre-emergence action against CYPES. It counts as in vivo, Cyperus esculentus. The settings on record: pre-emergence, dosage 320 g/ha, scored visually after 3 weeks vs untreated controls.
Description: as §1

Assay [16] deals with SETVI. Briefly: Pre-emergence action against SETVI. To be noted: pre-emergence, dosage 320 g/ha, scored visually after 3 weeks vs untreated controls. It counts as in vivo, Setaria viridis.
Description: as §1

For assay [17], the system named is ABUTH. The experiment in a line: Pre-emergence action against ABUTH. The class given is in vivo, Abutilon theophrasti. To be noted: pre-emergence, dosage 320 g/ha, scored visually after 3 weeks vs untreated controls.
Description: as §1

For assay [18], the system named is POLCO. The experiment in a line: Pre-emergence action against POLCO. To be noted: Dosage 320 g/ha, pre-emergence. It counts as in vivo, Polygonum convolvulus.
Description: as §1

For assay [19], the system named is VIOTR. Briefly: Pre-emergence action against VIOTR. It counts as in vivo, Viola tricolor. The settings on record: Dosage 320 g/ha, pre-emergence.
Description: as §1

Assay [20] concerns AVEFA. Briefly: Pre-emergence action against AVEFA. The class given is in vivo, Avena fatua. To be noted: dosage 320 g/ha, scored visually after 3 weeks vs untreated controls.
Description: as §1

Assay [21] relates to PHBPU. Briefly: Pre-emergence action against PHBPU. To be noted: Dosage 320 g/ha, pre-emergence. It counts as in vivo, Pharbitis purpurea.
Description: as §1

Assay [22] relates to SETVI. Briefly: Post-emergence action against SETVI. To be noted: post-emergence, dosage 80 g/ha, visual assessment about 3 weeks after treatment vs untreated controls. The class given is in vivo, Setaria viridis. The protocol:
as §2

Assay [23] has as its system VERPE. The experiment in a line: Post-emergence action against VERPE. The class given is in vivo, Veronica persica. To be noted: dosage 80 g/ha. Here is the method:
as §2

In the case of `CCC(=O)c1c(C)ccc(C(=O)Nc2nnnn2CC)c1Cl` [2-135], the “Pre-emergence action against ALOMY (herbicidal activity in percent)” value in [1] came to 90%. Also, the “Pre-emergence action against ECHCG (herbicidal activity)” value (from here on “Pre-emergence action against ECHCG”) in assay [2] was determined as 90%. For the same molecule, in [3], the “Pre-emergence action against AMARE (herbicidal activity)” value (“Pre-emergence action against AMARE” below) was 100%. The “Pre-emergence action against MATIN” value in [4] is listed as 90%. For the same molecule, the “Pre-emergence action against STEME” value in assay [5] is 90%. Besides, the “Pre-emergence action against VERPE” value in assay [6] is reported as 90%. For the same molecule, the “Post-emergence action against CYPES (herbicidal action in percent)” value in [7] stood at 80%. Further, in [8], the “Post-emergence action against ECHCG (herbicidal action in percent)” value turned out to be 90%. Besides, the “Post-emergence action against ABUTH (herbicidal action in percent)” value in assay [9] turned out to be 80%. Moreover, the “Post-emergence action against AMARE (herbicidal action in percent)” value in assay [10] was determined as 90%. The “Post-emergence action against MATIN (herbicidal action in percent)” value in assay [11] came to 90%. In addition, the “Post-emergence action against PHBPU” value in [12] amounted to 90. Also, in assay [13], the “Post-emergence action against STEME” value worked out at 100. In addition, the “Post-emergence action against VIOTR” value in [14] is 90.

As for `CCn1nnnc1NC(=O)c1ccc(C(F)(F)F)c(C(=O)C(C)(C)C)c1Cl` [2-143], in [15], the “Pre-emergence action against CYPES (herbicidal activity)” value (shortened to “Pre-emergence action against CYPES”) was 90%. The “Pre-emergence action against ECHCG” value in assay [2] came out at 90%. In addition, the “SETVI (Table B8, pre-emergence herbicidal activity)” value in [16] turned out to be 80%. Moreover, the “Pre-emergence action against ABUTH (herbicidal activity)” value (“Pre-emergence action against ABUTH” below) in assay [17] amounted to 100%. Besides, the “Pre-emergence action against AMARE” value in assay [3] was found to be 100%. Moreover, in assay [4], the “Pre-emergence action against MATIN” value came out at 100%. Besides, the “Pre-emergence action against POLCO” value in assay [18] is 100%. Moreover, the “Pre-emergence action against STEME” value in [5] came to 100%. In assay [19], the “Pre-emergence action against VIOTR” value turned out to be 100%. For the same molecule, the “Pre-emergence action against VERPE” value in assay [6] worked out at 100%. Besides, in [13], the “Post-emergence action against STEME” value is recorded as 90.

`CCCn1nnnc1NC(=O)c1ccc(C)c(C(C)=O)c1C` [3-1]: the “Pre-emergence action against ALOMY (herbicidal activity in percent)” value in assay [1] was 90%. In assay [15], the “Pre-emergence action against CYPES” value amounted to 90%. Besides, the “Pre-emergence action against ECHCG” value in [2] was 90%. For the same molecule, the “SETVI (Table B8, pre-emergence herbicidal activity)” value in [16] stood at 90%. In addition, the “Pre-emergence action against ABUTH” value in assay [17] came out at 100%. Also, in assay [3], the “Pre-emergence action against AMARE” value is recorded as 100%. Besides, the “Pre-emergence action against MATIN” value in assay [4] worked out at 100%. The “Pre-emergence action against POLCO” value in assay [18] was 90%. Besides, the “Pre-emergence action against STEME” value in [5] amounted to 90%. Besides, the “Pre-emergence action against VIOTR” value in [19] is 100%. For the same molecule, the “Post-emergence action against ECHCG (herbicidal action in percent)” value in [8] is reported as 100%. The “Post-emergence action against ABUTH (herbicidal action in percent)” value in [9] stood at 80%. For the same molecule, the “Post-emergence action against AMARE (herbicidal action in percent)” value in assay [10] is on record as 90%. Also, the “Post-emergence action against MATIN (herbicidal action in percent)” value in assay [11] was 100%. The “Post-emergence action against PHBPU” value in [12] is recorded as 80. Further, in assay [13], the “Post-emergence action against STEME” value turned out to be 90. The “Post-emergence action against VIOTR” value in assay [14] is reported as 100.

Turning to `CCCn1nnnc1NC(=O)c1ccc(C(F)(F)F)c(C(=O)COC)c1Cl` [3-144], the “Pre-emergence action against ALOMY (herbicidal activity in percent)” value in assay [1] is listed as 90%. Besides, the “Pre-emergence action against AVEFA (herbicidal activity)” value in assay [20] was 80%. Besides, the “Pre-emergence action against CYPES” value in [15] is 100%. In addition, the “Pre-emergence action against ECHCG” value in assay [2] came out at 100%. Further, the “SETVI (Table B8, pre-emergence herbicidal activity)” value in assay [16] is 100%. Moreover, the “Pre-emergence action against ABUTH” value in assay [17] amounted to 100%. The “Pre-emergence action against AMARE” value in assay [3] stood at 100%. In addition, the “Pre-emergence action against MATIN” value in assay [4] came to 100%. Moreover, in assay [21], the “Pre-emergence action against PHBPU” value amounted to 80%. Further, the “Pre-emergence action against STEME” value in assay [5] is on record as 100%. In addition, in assay [19], the “Pre-emergence action against VIOTR” value was 100%. Besides, the “Pre-emergence action against VERPE” value in assay [6] worked out at 100%. Also, the “Post-emergence action against ECHCG (herbicidal action in percent)” value in [8] came to 80%. For the same molecule, in assay [22], the “Post-emergence action against SETVI (herbicidal action in percent)” value came to 100%. Besides, the “Post-emergence action against ABUTH (herbicidal action in percent)” value in assay [9] came out at 90%. The “Post-emergence action against AMARE (herbicidal action in percent)” value in [10] is recorded as 90%. For the same molecule, in assay [11], the “Post-emergence action against MATIN (herbicidal action in percent)” value amounted to 90%. Moreover, the “Post-emergence action against PHBPU” value in [12] is on record as 100. The “Post-emergence action against STEME” value in assay [13] amounted to 100. Further, the “Post-emergence action against VIOTR” value in assay [14] is 80. Besides, the “Post-emergence action against VERPE” value in [23] is listed as 80.
